Calls of active or inactive are those of the source. How the calls were made is not given here.
Test system: CCRIS mutagenicity, Ames/micronucleus/aberration tests
Test: CCRIS mutagenicity studies

## Nc1ccc(Cl)c(N)c1
End Point: IN VITRO CHROMOSOMAL ABERRATIONS, Test System: CHL CELLS, Metabolic Activation: RAT, LIVER, S-9, SODIUM PHENOBARBITAL AND 5,6-BENZOFLAVONE
  mutagenic call: active; positive (structural changes)
End Point: IN VITRO CHROMOSOMAL ABERRATIONS, Test System: CHO-LB CELLS, Metabolic Activation: RAT, LIVER, S-9, AROCLOR 1254
  mutagenic call: inactive; negative
Test System: AMES SALMONELLA TYPHIMURIUM, Strain/Indicator: TA98, Metabolic Activation: HAMSTER, LIVER, S-9, AROCLOR 1254, Method: STANDARD PLATE
  mutagenic call: active; positive
Test System: AMES SALMONELLA TYPHIMURIUM, Strain/Indicator: TA98, Metabolic Activation: HAMSTER, LIVER, S-9, Method: STANDARD PLATE
  mutagenic call: active; positive
Test System: AMES SALMONELLA TYPHIMURIUM, Strain/Indicator: TA98, Metabolic Activation: MOUSE, LIVER, S-9, AROCLOR 1254, Method: STANDARD PLATE
  mutagenic call: active; positive
Test System: AMES SALMONELLA TYPHIMURIUM, Strain/Indicator: TA98, Metabolic Activation: MOUSE, LIVER, S-9, Method: STANDARD PLATE
  mutagenic call: active; positive
Test System: AMES SALMONELLA TYPHIMURIUM, Strain/Indicator: TA98, Metabolic Activation: RAT, LIVER, S-9, AROCLOR 1254, Method: STANDARD PLATE
  mutagenic call: active; positive
Test System: AMES SALMONELLA TYPHIMURIUM, Strain/Indicator: TA98, Metabolic Activation: RAT, LIVER, S-9, Method: STANDARD PLATE
  mutagenic call: active; positive
Test System: AMES SALMONELLA TYPHIMURIUM, Strain/Indicator: TA100, Metabolic Activation: HAMSTER, LIVER, S-9, AROCLOR 1254, Method: STANDARD PLATE
  mutagenic call: active; positive
Test System: AMES SALMONELLA TYPHIMURIUM, Strain/Indicator: TA100, Metabolic Activation: NONE, Method: STANDARD PLATE
  mutagenic call: inactive; negative
Test System: AMES SALMONELLA TYPHIMURIUM, Strain/Indicator: TA100, Metabolic Activation: RAT, LIVER, S-9, AROCLOR 1254, Method: STANDARD PLATE
  mutagenic call: active; positive
Test System: AMES SALMONELLA TYPHIMURIUM, Strain/Indicator: TA1535, Metabolic Activation: HAMSTER, LIVER, S-9, AROCLOR 1254, Method: STANDARD PLATE
  mutagenic call: inactive; negative
Test System: AMES SALMONELLA TYPHIMURIUM, Strain/Indicator: TA1535, Metabolic Activation: HAMSTER, LIVER, S-9, Method: STANDARD PLATE
  mutagenic call: inactive; negative
Test System: AMES SALMONELLA TYPHIMURIUM, Strain/Indicator: TA1535, Metabolic Activation: MOUSE, LIVER, S-9, AROCLOR 1254, Method: STANDARD PLATE
  mutagenic call: inactive; negative
Test System: AMES SALMONELLA TYPHIMURIUM, Strain/Indicator: TA1535, Metabolic Activation: MOUSE, LIVER, S-9, Method: STANDARD PLATE
  mutagenic call: inactive; negative
Test System: AMES SALMONELLA TYPHIMURIUM, Strain/Indicator: TA1535, Metabolic Activation: NONE, Method: STANDARD PLATE
  mutagenic call: inactive; negative
Test System: AMES SALMONELLA TYPHIMURIUM, Strain/Indicator: TA1535, Metabolic Activation: RAT, LIVER, S-9, Method: STANDARD PLATE
  mutagenic call: inactive; negative
Test System: AMES SALMONELLA TYPHIMURIUM, Strain/Indicator: TA1537, Metabolic Activation: HAMSTER, LIVER, S-9, AROCLOR 1254, Method: STANDARD PLATE
  mutagenic call: active; positive
Test System: AMES SALMONELLA TYPHIMURIUM, Strain/Indicator: TA1537, Metabolic Activation: HAMSTER, LIVER, S-9, Method: STANDARD PLATE
  mutagenic call: active; positive
Test System: AMES SALMONELLA TYPHIMURIUM, Strain/Indicator: TA1537, Metabolic Activation: MOUSE, LIVER, S-9, AROCLOR 1254, Method: STANDARD PLATE
  mutagenic call: active; positive
Test System: AMES SALMONELLA TYPHIMURIUM, Strain/Indicator: TA1537, Metabolic Activation: NONE, Method: STANDARD PLATE
  mutagenic call: inactive; negative
Test System: AMES SALMONELLA TYPHIMURIUM, Strain/Indicator: TA1537, Metabolic Activation: RAT, LIVER, S-9, AROCLOR 1254, Method: STANDARD PLATE
  mutagenic call: active; positive
Test System: AMES SALMONELLA TYPHIMURIUM, Strain/Indicator: TA1537, Metabolic Activation: RAT, LIVER, S-9, Method: STANDARD PLATE
  mutagenic call: inactive; negative
Test System: AMES SALMONELLA TYPHIMURIUM, Strain/Indicator: TA1538, Metabolic Activation: HAMSTER, LIVER, S-9, AROCLOR 1254, Method: STANDARD PLATE
  mutagenic call: active; positive
Test System: AMES SALMONELLA TYPHIMURIUM, Strain/Indicator: TA1538, Metabolic Activation: HAMSTER, LIVER, S-9, Method: STANDARD PLATE
  mutagenic call: active; positive
Test System: AMES SALMONELLA TYPHIMURIUM, Strain/Indicator: TA1538, Metabolic Activation: MOUSE, LIVER, S-9, AROCLOR 1254, Method: STANDARD PLATE
  mutagenic call: active; positive
Test System: AMES SALMONELLA TYPHIMURIUM, Strain/Indicator: TA1538, Metabolic Activation: MOUSE, LIVER, S-9, Method: STANDARD PLATE
  mutagenic call: active; positive
Test System: AMES SALMONELLA TYPHIMURIUM, Strain/Indicator: TA1538, Metabolic Activation: RAT, LIVER, S-9, AROCLOR 1254, Method: STANDARD PLATE
  mutagenic call: active; positive
Test System: AMES SALMONELLA TYPHIMURIUM, Strain/Indicator: TA1538, Metabolic Activation: RAT, LIVER, S-9, Method: STANDARD PLATE
  mutagenic call: active; positive
Test System: E. COLI, Strain/Indicator: WP2 UVRA, Metabolic Activation: HAMSTER, LIVER, S-9, AROCLOR 1254, Method: STANDARD PLATE
  mutagenic call: inactive; negative
Test System: E. COLI, Strain/Indicator: WP2 UVRA, Metabolic Activation: HAMSTER, LIVER, S-9, Method: STANDARD PLATE
  mutagenic call: inactive; negative
Test System: E. COLI, Strain/Indicator: WP2 UVRA, Metabolic Activation: MOUSE, LIVER, S-9, AROCLOR 1254, Method: STANDARD PLATE
  mutagenic call: inactive; negative
Test System: E. COLI, Strain/Indicator: WP2 UVRA, Metabolic Activation: MOUSE, LIVER, S-9, Method: STANDARD PLATE
  mutagenic call: inactive; negative
Test System: E. COLI, Strain/Indicator: WP2 UVRA, Metabolic Activation: NONE, Method: STANDARD PLATE
  mutagenic call: inactive; negative
Test System: E. COLI, Strain/Indicator: WP2 UVRA, Metabolic Activation: RAT, LIVER, S-9, AROCLOR 1254, Method: STANDARD PLATE
  mutagenic call: inactive; negative
Test System: E. COLI, Strain/Indicator: WP2 UVRA, Metabolic Activation: RAT, LIVER, S-9, Method: STANDARD PLATE
  mutagenic call: inactive; negative

— PubChem BioAssay AID1259407 (Chemical Carcinogenesis Research Information System (CCRIS), 2018)
